In patent US11903914B2, “Applications for sulindac in preparing anti-lung cancer products” (SHANGHAI JIAO TONG UNIVERSITY, priority 2015, dated 2024):

Key:
Format in all cases: cell-based
[1] = test system: NCI-H720 lung cancer cells; assay: CELLTITER-GLO luminescent cell viability assay, NCI-H720 96-well drug screening plate; details: 72 hours
Experimental: (§1) In example 1, CELLTITER-GLO was used to test sulindac against lung cancer
(§2) 1. Cell Plating • a) The complete medium required for each cell was prepared. • b) Before beginning the experiment, the name of the drug screened for the cells marked on the 100 mm petri dish was confirmed as well as information such as the passage time and number of passages to ensure the experiment was error-free. • c) Refer to steps d) through i) for procedures for adherent cells; refer to steps j) through l) for procedures for suspension cells. • d) When using aseptic technique, a vacuum pump was used to draw the cell culture medium. • e) 2 ml of a sterile PBS solution was used to rinse cell surfaces, and a vacuum pump was used to aspirate the PBS waste. • f) A 1 ml 0.25% (w/v) Trypsin-0.038% (w/v) EDTA solution was gently added to the petri dish for cell digestion, and after gently mixing several times, the solution covered the cell surfaces. […]

SW900 lung cancer cells = assay: CELLTITER-GLO luminescent cell viability assay, SW900 96-well drug screening plate; details: Homo sapiens, 72 hours
Experimental: as §1, §2

[2] = test system: LOVO (ATCC CCL-229) lung cancer cells; assay: CELLTITER-GLO luminescent cell viability assay, LOVO cells (same method); details: Homo sapiens
Experimental: as §2

IC50 ([1]; CellTiter-Glo): 42.7 µM
EC50 ([1]; FIG. 2 curve fit): 38.6 µM
IC50 (SW900 lung cancer cells): 50.3 µM
IC50 [2]: 100 µM
SMILES: CC1=C(CC(=O)O)c2cc(F)ccc2/C1=C\c1ccc([S+](C)[O-])cc1 (stereo not shown) [sulindac]
